Test results taken from PMC3733449 (Bioorganic & medicinal chemistry, 2013).
Like-named read-outs stand apart in the source and are kept apart here. Marks after values point to notes of the source that are not given here. Values belong to the compound of their own block, whether it stands above or below them.

Tests used:
[1] = target: human D3 dopamine receptor (Homo sapiens, UniProt P35462); assay: Competitive radioligand binding, D3 dopamine receptor; conditions: D2:D3 Ki value ratio
[2] = target: T1, human D3 receptors expressed in stably transfected HEK 293 cells (Homo sapiens, UniProt P35462); assay: Forskolin-dependent whole cell adenylyl cyclase inhibition assay, D3; type: cell-based; conditions: result in words
T1 sequence (P35462 whole entry): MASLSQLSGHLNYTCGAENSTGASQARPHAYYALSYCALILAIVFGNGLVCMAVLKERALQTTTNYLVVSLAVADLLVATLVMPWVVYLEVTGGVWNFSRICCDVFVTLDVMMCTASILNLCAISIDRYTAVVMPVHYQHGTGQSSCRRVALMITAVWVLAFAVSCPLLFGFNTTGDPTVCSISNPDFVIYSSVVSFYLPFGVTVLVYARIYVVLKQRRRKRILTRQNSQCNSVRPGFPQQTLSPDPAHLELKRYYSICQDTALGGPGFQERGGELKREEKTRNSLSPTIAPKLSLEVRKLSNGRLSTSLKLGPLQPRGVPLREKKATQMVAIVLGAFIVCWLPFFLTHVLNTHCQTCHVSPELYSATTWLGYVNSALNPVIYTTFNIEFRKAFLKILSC

[3] = published data; ref Leopoldo et al, 2002. [24]; cited from earlier work
[4] = target: T1, human D3 receptors expressed in stably transfected HEK 293 cells; conditions: result in words, previously reported; cited from earlier work

human D3 dopamine receptor, sequence (P35462 whole entry): as above

- D2/D3 (Ki ratio) [1]: > 100
SMILES: COc1ccccc1N1CCCN(CCCCNC(=O)c2ccc(-c3ccsc3)cc2)CC1 [Compound 11a, N-(4-(4-(2-Methoxyphenyl)-1,4-diazepan-1-yl)butyl)-4-(thiophen-3-yl)benzamide]

- efficacy class at D3 receptors [2]: strong partial agonist
SMILES: COc1ccccc1N1CCCN(CCCCNC(=O)c2ccc(CCF)cc2)CC1 [Compound 11e, 4-(2-Fluoroethyl)-N-(4-(4-(2-methoxyphenyl)-1,4-diazepan-1-yl)butyl)benzamide]

SMILES: O=C(NCCCCN1CCN(c2cccc(Cl)c2Cl)CC1)c1ccc2c(c1)Cc1ccccc1-2 [NGB-2904]
- Log P [3]: 6.94 ^h

SMILES: COc1ccccc1N1CCN(CCCCNC(=O)c2ccc(CCF)cc2)CC1 [WC-44]
- efficacy class at D3 receptors [4]: full agonist
